Reference: PubChem BioAssay (NCI)
Several values for one entry are separate records, joined by “and”; a condition that tells them apart may be missing. Equal values may be shown once.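 Cells were grown in 96-well plates and exposed to each compound for 48 hours at five concentrations; endpoints were interpolated linearly between bracketing concentrations, or set to the highest concentration if not reached. GI50 is the concentration that inhibits growth by half. TGI: concentration producing complete growth inhibition.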 Where a SMILES comes first, the peptide text is derived from it. [ ]: non-standard residue; d: D form. The star is where a group is joined. ξ: configuration not given here. 4Abz = Nc1ccc(C(=O)O)cc1; ξL = CC(C)CC(N)C(=O)O; NHOH = ON*

Legend:
Test in all cases: NCI anticancer screen, dose series, 48 h
HL-60(TB) leukemia = test system: HL-60(TB) leukemia
OVCAR-8 ovarian = test system: OVCAR-8 ovarian
NCI-H460 lung = test system: NCI-H460 lung
ACHN renal = test system: ACHN renal
UACC-257 melanoma = test system: UACC-257 melanoma
786-0 renal = test system: 786-0 renal
SNB-19 CNS = test system: SNB-19 CNS
HCT-116 colon = test system: HCT-116 colon
EKVX NSCLC = test system: EKVX NSCLC
SR leukemia = test system: SR leukemia

SMILES | GI50 (HL-60(TB) leukemia) | TGI (HL-60(TB) leukemia) | GI50 (OVCAR-8 ovarian) | TGI (OVCAR-8 ovarian) [µM] | GI50 (NCI-H460 lung) [µM] | TGI (NCI-H460 lung) | GI50 (ACHN renal) [µM] | TGI (ACHN renal) | GI50 (UACC-257 melanoma) [µM] | TGI (UACC-257 melanoma) [µM] | GI50 (786-0 renal) [µM] | TGI (786-0 renal) [µM] | GI50 (SNB-19 CNS) [µM] | TGI (SNB-19 CNS) [µM] | GI50 (HCT-116 colon) [µM] | TGI (HCT-116 colon) [µM] | GI50 (EKVX NSCLC) | TGI (EKVX NSCLC) | GI50 (SR leukemia) [µM] | TGI (SR leukemia) [µM]
COc1ccc(-n2cc(-c3ccc(Cl)cc3)[nH]c2=S)cc1Cl | > 100 µM | > 100 µM | 37.4 µM | > 100 | 50.5 | > 100 µM | 33.1 | > 100 µM | > 100 | > 100 | 20 | 41.4 | 20.1 | 55 | 47.2 | > 100 | 42.8 µM | > 100 µM |  | 
CC(=O)NC1=NC(=O)/C(=C/c2ccc(Cl)cc2Cl)N1C |  | 7.37 µM |  | > 100 |  | > 100 µM |  | > 100 µM |  | > 100 |  | > 100 |  | > 100 |  | > 100 |  | 50.7 µM |  | 
O=C(CC1Sc2ccccc2NC1=O)Nc1ccc([N+](=O)[O-])cc1[N+](=O)[O-] (configuration not stated) |  | 41.9 µM |  | 31 |  | 59.5 µM |  | 30.3 µM |  | 46.2 |  | 31.7 |  | 40.7 |  | 29.8 |  | 69.2 µM |  | 
COC(=O)C(=O)C(C(=O)C(=O)Nc1ccc(Cl)cc1Cl)c1nc2ccc(Cl)cc2[nH]c1=O (configuration not stated) |  | > 100 µM |  | > 100 |  | > 100 µM |  | > 100 µM |  | > 100 |  | > 100 |  | > 100 |  | > 100 |  | > 100 µM |  | 
CC(=O)OC1CC[C@@]2(C)C(CC(OC3OC(CO)C(O)C(O)C3O)[C@]3(C)C2CCC24CC23CC[C@H]4C(C)CC(O)[C@@H](O)C(C)(C)O)C1(C)C (some centres not stated) |  | 24.9 µM |  | > 50 |  | > 50 µM |  | > 50 µM |  | 24.4 |  | 30.7 |  | 38.3 |  | 18.9 |  | 48.6 µM |  | 
COc1ccc(/C=N\N2C(=O)Cc3ccccc32)cc1 |  | > 100 µM |  | > 100 |  | > 100 µM |  | > 100 µM |  | > 100 |  | > 100 |  | > 100 |  | > 100 |  | > 100 µM |  | 
CCCCC#Cc1c(I)n(C2OC(CO[Si](C)(C)C(C)(C)C)C3OC(C)(C)OC32)c(=O)[nH]c1=O (configuration not stated) | 1.52 µM | 4.14 µM | 3.73 µM | 15.9 |  |  | 2.29 | 7.52 µM | 3.1 | 15.5 | 15.4 | 29 |  |  | 5.52 | 17.9 | 15.3 µM | 28.7 µM |  | 
Cc1cc(C)cc(NC(=O)CCC(=O)C2CCC/C2=N\NC(=O)C(=O)NN)c1 (configuration not stated) |  | > 100 µM |  | > 100 |  | > 100 µM |  | > 100 µM |  | > 100 |  | > 100 |  | > 100 |  | > 100 |  | > 100 µM |  | 
c1cc(C2O[C@H]3CCCN3[C@@H]2c2ccncc2)ccn1 (some centres not stated) |  |  |  | > 100 |  | > 100 µM |  | > 100 µM |  | > 100 |  | > 100 |  | > 100 |  | > 100 |  | > 100 µM |  | 
COc1ccc(OC)c(-c2cc(-c3ccc(Cl)cc3)nn2-c2ccc(S(N)(=O)=O)cc2)c1 | 14.3 µM | > 100 µM | 11.3 µM | 34.6 | 10.6 | 93 µM |  |  | 3.98 | 16.4 | 13.2 | 27.1 |  |  |  |  | 11.9 µM | 27.5 µM |  | 
COC(=O)c1ccc2c(c1)[n+](=O)c(C(C)=O)c(C(F)(F)F)n2[O-] | 1.94 µM | 7.87 µM | 2.87 µM | 8.28 | 1.81 | 3.45 µM | 1.76 | 3.24 µM | 1.82 | 3.31 | 1.91 | 3.37 | 3.12 | 9.12 | 1.45 | 2.76 | 1.94 µM | 4.35 µM |  | 
Nc1ncnc2c1ncn2C1OC(CO)C(O)C1O (configuration not stated) | 22.9 µM and 105 µM and 13.8 µM | > 100 µM and 328 µM and 56 µM | 32.9 µM and 79.3 µM and 12.6 µM | > 401 | 4.23 | 181 µM and 32.2 µM | 30.4 | > 100 µM and 96.8 µM | > 450 | > 450 | 9.22 | > 100 |  | > 450 | 7.58 | > 450 | > 100 µM and 48.3 µM and 17 µM | > 100 µM and 152 µM and > 84.3 µM |  | 
CCOc1cccc2cccnc12 |  | > 100 µM |  | > 100 |  | > 100 µM |  | > 100 µM |  | > 100 |  | > 100 |  | > 100 |  | > 100 |  | > 100 µM |  | 
O=C1/C=C(/c2ccc(O)cc2)[C@H](O)Cc2ccc(OC3OC(CO)C(O)C(O)C3O)cc2O1 (some centres not stated) (tested in a mixture with another compound) |  | > 100 µM |  | > 100 |  | > 100 µM |  | > 100 µM |  | > 100 |  | > 100 |  | > 100 |  | > 100 |  | > 100 µM |  | 
COc1ccc2c(c1)C(CCN)C(=O)N2 (configuration not stated) |  | > 100 µM |  | > 100 |  | > 100 µM |  | > 100 µM |  | > 100 |  | > 100 |  |  |  | > 100 |  | > 100 µM |  | 
C=C1c2c(C)nn(-c3ccccc3)c2N(C)C23C[C@@H]1C1(C)c4c(C)nn(-c5ccccc5)c4N(C)C(C)(C[C@H]12)C3 (some centres not stated) |  |  | 5.41 µM | > 100 | 3.35 | > 100 µM | 4.78 | > 100 µM | 2.87 | > 100 | 11.8 | 69.4 | 11 | 79.6 | 3.72 | > 100 |  |  |  | 
S=c1sc2ccccc2n1CN1CCN(Cc2ccccc2)CC1 |  | > 100 µM |  | > 100 |  | > 100 µM |  | > 100 µM |  | > 100 |  | > 100 |  | > 100 |  | > 100 |  | > 100 µM |  | 
COc1ncn(C2C=C(CO)C(O)C2O)c(=O)n1 (configuration not stated) |  | > 100 µM |  | > 100 |  | > 100 µM |  | > 100 µM |  | > 100 |  | > 100 |  |  |  | > 100 |  | > 100 µM |  | 
COc1ccccc1NC(=O)CC(=O)NNCC(=O)Nc1nc(-c2ccccc2)cs1 |  | > 100 µM |  | > 100 |  | > 100 µM |  |  |  |  |  | > 100 |  | > 100 |  | > 100 |  | > 100 µM |  | 
Cc1ccc(NC(=O)C(=O)C2C(=O)C3=C(CC2(C)C)NC2C=CC=CC2S3)c(C)c1 (configuration not stated) |  | > 100 µM |  | > 100 |  | > 100 µM |  | > 100 µM |  | > 100 |  | > 100 |  | > 100 |  | > 100 |  | > 100 µM |  | 
O=c1c2ccccc2oc2nccnc12 |  |  |  | > 100 |  | > 100 µM |  | > 100 µM |  | > 100 |  | > 100 |  | > 100 |  | > 100 |  | > 100 µM |  | 
CC(C)CC(NC(=O)[C@@H]1CCCN1C(=O)CNC(=O)c1ccc(N)cc1)C(=O)N[C@H](C)C(=O)NO (some centres not stated) (H-[4Abz]GP[ξL][dA]-{NHOH}) |  |  | > 100 µM | > 100 | > 100 | > 100 µM | > 100 | > 100 µM | > 100 | > 100 | > 100 | > 100 | > 100 | > 100 | > 100 | > 100 | > 100 µM | > 100 µM |  | 
COc1cc2c(cc1OC)[C@@H]1[C@H](C2=O)c2ccc([N+](=O)[O-])cc2C(=O)N1CCCBr |  |  | 0.0169 µM | 2.04 |  |  |  |  | 0.0737 | 0.893 | < 0.0489 | 0.285 | 0.474 | > 100 | < 0.01 | 0.0133 | 1.78 µM | > 100 µM | < 0.01 | 0.311
CC(C)CCC[C@@H](C)C1CCC2[C@@H]3CC=C4C[C@@H](OC(=O)CCC(=O)NCC[N+](C)(C)CCCS(=O)(=O)[O-])CC[C@]4(C)C3CC[C@@]21C (some centres not stated) |  | 36.6 µM |  | 35 |  | 30.9 µM |  | 53.9 µM |  | 48.8 |  | 67.9 |  | 44.7 |  | 63.1 |  | 79.5 µM |  | 
CC(=O)OCC1OC(n2c(-c3ccc(N)cc3)cc(-c3ccco3)c(C#N)c2=O)C(OC(C)=O)C(OC(C)=O)C1OC(C)=O (configuration not stated) |  |  |  | > 50 |  |  |  | > 50 µM |  | > 50 |  | > 50 |  | > 50 |  | > 50 |  | > 50 µM |  | > 50
O=C(CCCCCCCCC(=O)OCCCn1cc(C(=O)NC(=O)OCc2ccccc2)c(=O)[nH]c1=O)OCCCn1cc(C(=O)NC(=O)OCc2ccccc2)c(=O)[nH]c1=O |  | > 100 µM |  | > 100 |  | > 100 µM |  | > 100 µM |  | > 100 |  | > 100 |  | > 100 |  | > 100 |  | > 100 µM |  | 
COC1=CC(=O)c2c(O)c3c(c(O)c2C1=O)CC(C)(O)OC3 (configuration not stated) |  | 24.2 µM |  | 8.65 |  | 6.48 µM |  | > 34 µM |  | 4.88 |  | 27.3 |  | 13.4 |  | 10.6 |  | 18.7 µM |  | 
